In patent publication US8840899B2, “Use of mTOR inhibitors to enhance T cell immune responses” (priority 2008, dated 2014):
Entries after “also recorded” stand apart in the source; their conditions may differ. Read-outs that look alike come from different tables or passages of the source.

Columns and labels:
[1] = test system: FKBP12 RNAi retrovirus transduced P14 cells; design: species or system mice; conditions: mouse, in vivo
P14 memory T cells = format: in vivo; conditions: VVGP33 challenge, vs memory cells of untreated mice
LCMV = test system: LCMV; design: species or system mice; conditions: mouse, in vivo
P14 cells = format: in vivo, mice
[2] = test system: GP33 epitope-specific CD8^+ T cells; format: in vivo, mice
[3] = test system: GP33 epitope-specific memory CD8^+ T cells (P14 cells); test: Rapamycin during T cell maintenance phase, adoptively transferred CFSE-labeled memory P14 cells; format: in vivo, mice
[4] = test system: vaccinia virus (VV) that expresses the GP33 epitope (VVgp33); design: species or system mice; conditions: mouse, in vivo
[5] = test system: LCMV-specific CD8^+ T cells (P14 cells); design: species or system mice; conditions: mouse, in vivo
[6] = test system: DbGP33 tetramer-positive CD8^+ T cells; test: rAd5-LCMV-GP vaccination with low dose rapamycin; format: in vivo, mice
Method: Mice were vaccinated with rAd5-LCMV-GP (1×10^10 viral particles) by intramuscular injection on Day 0 and either left untreated or treated with rapamycin at a dose of 0.075 mg/kg from Day −1 to Day 34 (FIG. 19A). The number of DbGP33 tetramer-positive CD8^+ T cells in the spleen of treated and untreated mice was determined by FACS on Day 35 post-vaccination. […] The phenotype of virus-specific CD8^+ T cells was also evaluated by FACS (FIG. 19C).

[7] = test system: DbGP33 tetramer-positive P14 cells; format: in vivo, mice
[8] = test system: vaccinia virus-specific CD8^+ T cells; design: species or system Rhesus macaques (Macaca mulatta); conditions: rhesus monkey, in vivo
[9] = test system: virus-specific CD8^+ T cells; design: species or system mice; conditions: mouse, in vivo
P14 memory cells = format: in vivo, mice
[10] = test system: virus-specific memory CD4^+ T cells; design: species or system mice; conditions: mouse, in vivo
[11] = test system: virus-specific CD8^+ T cells; design: species or system mice; conditions: mouse, in vivo; remark: listed apart in the source
[12] = mice
[13] = test system: virus-specific CD8^+ T cells; design: species or system mice; conditions: mouse, in vivo; remark: listed apart in the source
[14] = test system: antigen-specific CD8^+ T cells; design: species or system mice; conditions: mouse, in vivo
[15] = test system: virus-specific CD8^+ T cells; design: species or system mice; conditions: mouse, in vivo; remark: listed apart in the source
[16] = test system: CD62L^low effector CD8^+ T cells (P14 cells); format: in vivo, mice
[17] = rhesus macaques, approximately 10-50 μg/kg/day intramuscularly
FKBP12 = format: cell-based, mice; conditions: GFP^+ P14 cells, Day 7 or 8 post-infection
raptor = format: cell-based, mice; conditions: GFP^+ P14 cells, Day 7 or 8 post-infection
[18] = test system: LCMV-specific P14 transgenic CD8^+ T cells; design: species or system mice; conditions: mouse, in vivo
[19] = Day 31 post-infection, spleen, relative to control

Question: What does the source list for `CO[C@H]1C[C@@H]2CC[C@@H](C)[C@@](O)(O2)C(=O)C(=O)N2CCCC[C@H]2C(=O)O[C@H]([C@H](C)C[C@@H]2CC[C@@H](O)[C@H](OC)C2)CC(=O)[C@H](C)/C=C(\C)[C@@H](O)[C@@H](OC)C(=O)[C@H](C)C[C@H](C)/C=C/C=C/C=C/1C` [rapamycin, (3S,6R,7E,9R,10R,12R,14S,15E,17E,19E,21S,23S,26R,27R,34aS)-9,10,12,13,14,21,22,23,24,25,26,27,32,33,34,34a-hexadecahydro-9,27-dihydroxy-3-[(1R)-2-[(1S,3R,4R)-4-hydroxy-3-methoxycyclohexyl]-1-methylethyl]-10,21-dimethoxy-6,8,12,14,20,26-hexamethyl-23,27-epoxy-3H-pyrido[2,1-c][1,4]-oxaazacyclohentriacontine-1,5,11,28,29(4H,6H,31H)-pentone]?
Answer: effect of rapamycin treatment on phenotype / memory differentiation of FKBP12 knockdown P14 cells [1]: diminished; also recorded: almost disappeared; expression of memory markers (CD127, CD62L, Bcl2) on FKBP12 knockdown P14 cells under rapamycin [1]: did not show increased expression; recall responses of memory CD8^+ T cells generated with rapamycin (P14 memory T cells): superior; LCMV titer relative to untreated mice (LCMV): significantly increased; number of virus-specific CD8^+ T cells (P14) in spleen (P14 cells; 0.6 mg/kg daily from Day 8 after VV infection, Day 31, vs control): similar; expression of CD27 and Bcl-2 on virus-specific CD8^+ T cells (P14 cells; [19]): higher; expression of KLRG-1 on virus-specific CD8^+ T cells (P14 cells; [19]): lower; CD127 and CD62L expression on virus-specific CD8^+ T cells (P14 cells; Day 31 post-infection, spleen, vs control): no significant difference; phenotype of antigen-specific CD8^+ T cells from spleen ([2]; 34 days post-immunization): markers of high quality memory T cells (CD127^High, CD62L^High, KLRG-1^Low, Bcl-2^High); memory T cell numbers relative to control ([2]; 165 days after stopping the drug treatment): 10 fold; number of antigen-specific CD8^+ T cells maintained ([2]; PBMC and spleen (Day 34), vs control): higher number; expansion of GP33 epitope-specific CD8^+ T cells after VLP immunization ([2]; low dose rapamycin from Day -1, PBMC, vs control): expanded similarly; magnitude and quality of VLP-induced memory CD8^+ T cells ([2]; mouse, in vivo): enhanced both the magnitude and the quality; number of virus-specific CD8^+ T cells in the spleen ([3]; 0.6 mg/kg daily from Day -1, Day 42 post-transfer, vs untreated): decreased; percentage of virus-specific CD8^+ T cells that divided more than twice (CFSE) ([3]; 0.6 mg/kg daily, Day 42 post-transfer, untreated 42.5%): 17.8%; protective immunity (viral control) [4]: better; viral titer in the ovaries [4]: reduction in viral titer; expression of CD127 and CD62L on LCMV-specific CD8^+ T cells [5]: enhanced expression; percentage of virus-specific CD8^+ T cells in PBMCs [5]: greater; recall responses [5]: enhanced; number of virus-specific (DbGP33 tetramer-positive) CD8^+ T cells in spleen ([6]; 0.075 mg/kg Day -1 to Day 34, Day 35 post-vaccination): significantly increased; phenotype of virus-specific CD8^+ T cells ([6]; 0.075 mg/kg Day -1 to Day 34, spleen Day 35): markers of high quality memory T cells (CD127^High, CD62L^High, KLRG-1^Low, Bcl-2^High); absolute number of DbGP33 tetramer-positive P14 cells in spleen ([7]; Day 5 post-challenge, vs untreated): greater; recall responses of memory CD8^+ T cells differentiated with rapamycin ([7]; rapamycin 25 days, VVGP33 challenge Day 28 post-transfer): better; percentage of DbGP33 tetramer-positive P14 cells in the spleen ([7]; rapamycin for 25 days, VVgp33 challenge Day 28, Day 5 post-challenge, untreated 1.69%): 4.93%; T cell contraction [8]: slower; number of memory CD8^+ T cells maintained [8]: higher number; Bcl-2 expression of virus-specific CD8^+ T cells in lymph node [9]: higher than control; cell surface markers of virus-specific CD8^+ T cells in lymph node [9]: no significant change; number of memory cells generated [9]: not affected; number of virus-specific CD8^+ T cells in the spleen [9]: did not reduce; number of virus-specific CD8^+ T cells with phenotype of highly functional memory cells [9]: significantly higher number; phenotype of GP33, GP276 and NP396 epitope-specific CD8^+ T cells in spleen [9]: high quality memory T cells (CD127^High, CD62L^High, KLRG-1^Low, CD27^High, Bcl-2^High); percentage of P14 memory cells that divided more than twice in spleen (P14 memory cells; 30 days post-transfer, control 36.8%): 46.1%; percentage of divided memory T cells in PBMC (P14 memory cells; memory cells from rapamycin-treated mice (Example 1), up to 30 days post-transfer): increased; homeostatic proliferation of memory CD8^+ T cells generated with rapamycin (P14 memory cells; rapamycin Day -1 to Day 33, 30 days post transfer, vs memory cells of untreated mice): superior; number of IFN-γ^+ CD4^+ T cells upon GP61 peptide stimulation [10]: higher number of IFN-γ^+ cells; LCMV-specific CD8^+ T cell response [11]: enhanced; contraction of the T cell response [11]: minimal contraction; expression of CD127, CD62L, and Bcl-2 on memory CD8^+ T cells [11]: higher levels; frequency of KLRG-1^Low memory CD8^+ T cells [11]: higher frequency; number of GP33 epitope-specific CD8^+ T cells in PBMCs [11]: higher number; number of epitope-specific CD8^+ T cells (GP33, GP276, NP396, NP205, GP118) in spleen [11]: enhanced the number; numbers of antigen-specific CD8^+ T cells in lymphoid and non-lymphoid tissues [11]: Increased numbers; phenotype of virus-specific CD8^+ T cells [11]: CD127^High CD62L^High KLRG-1^Low Bcl-2^High phenotype; blood concentration ([12]; 0.6 mg/kg (600 μg/kg) intraperitoneally daily): 40 to 100 ng/mL; blood concentration ([12]; low dose 0.075 mg/kg (75 μg/kg) daily): 5 to 20 ng/mL; Bcl-2 expression in Day 8 effector CD8^+ T cells [13]: higher levels; death of effector CD8^+ T cells during contraction phase [13]: only minimal death; phenotype of memory CD8^+ T cells [13]: similar; proportion of CD127^High KLRG-1^Low cells among Day 8 effector CD8^+ T cells [13]: higher proportion; incorporation of BrdU by antigen-specific CD8^+ T cells [14]: minimal incorporation; percentage of virus-specific CD8^+ T cells (DbGP33 tetramer) in PBMCs [15]: 2.49%; CD62L re-expression on transferred virus-specific CD8^+ T cells ([16]; 0.6 mg/kg daily after transfer, blood/PBMC, vs control mice): quickly re-expressed CD62L; also recorded: re-expressed CD62L much faster; absolute number of CD62L^High virus-specific CD8^+ T cells in spleen ([16]; 0.6 mg/kg daily, Day 26 post-transfer, vs untreated): greater; cell division during CD62L re-expression (CFSE) ([16]; effector to memory transition phase after transfer): no or minimal cell division; also recorded: no cell division; Blood levels of rapamycin [17]: 5 to 15 ng/mL

Question: For “FKBP12 shRNA (guide GCCAAACTGATAATCTCCTCA)”, which “Expression of FKBP12 protein” value (FKBP12) is on record?
Answer: Its value is “significantly reduced”.

Question: With “raptor shRNA (guide GCCCGAGTCTGTGAATGTAAT)” as the compound, how does the “Expression of raptor protein” value (raptor) read?
Answer: The value was “significantly reduced”.

Question: And the “expression of phenotypic markers on antigen-specific T cells” value [18]?
Answer: The value was “identical to what was observed upon knockdown of mTOR”.

Question: What about the “virus-specific memory T cell phenotype in spleen” value [18] of the same compound?
Answer: Its value is “high quality memory T cell phenotype (CD127^High, CD62L^high KLRG-1^Low)”.
